Among the data in ChEMBL document CHEMBL1146141, “Synthesis of constrained ceramide analogs and their potent antileukemic activities” (Bioorg Med Chem Lett, 2006) are Activity values, retold here.

Structures are written as SMILES. The source made the active and inactive calls. The rule behind the calls is not given here.

The subject of the experiment is HL-60. Description: Antileukemic activity against human leukemia HL60 cells at 20 uM. Type of experiment: functional, cell-based.
Consider `CCCCCCCCCCCCC/C=C/[C@@H](O)[C@@H]1COC(=O)N1C(=O)CC`, for which the result was Active. The value for `CCCCCCCCCCCCC/C=C/[C@@H](O)[C@@H]1COC(=O)N1C(=O)c1ccccc1` was “Active”. The value for `CCCCCCCCCCCCC/C=C/[C@@H](O)[C@@H]1COC(=O)N1C(=O)CCCCCCCCCCCCCCC` was “inactive”.
